The text below walks through data of US10688093B2, “Methods, compositions, and uses of novel Fyn kinase inhibitors” (priority 2015, dated 2020).

By IC50 is commonly meant the concentration that inhibits the measured activity by half.

The target of the assay is full-length recombinant human FYN A (Homo sapiens (Human), UniProt P06241). Description: ADP-Glo Kinase Assay of FYN kinase inhibition. The class given is biochemical. The note with it: primary screen, initial compounds. The procedure, abridged: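 ADP-Glo read-out of peptide phosphorylation after 90 min RT with 12.5 pmol ATP and 100 pg 12-mer substrate. Enzyme was N-GST full-length human FYN A from insect cells, 3 pg, pre-incubated 30 min with compound, 10 points from 10 μM top, 3-fold steps; IC50 from curve.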
full-length recombinant human FYN A, sequence (P06241 whole entry): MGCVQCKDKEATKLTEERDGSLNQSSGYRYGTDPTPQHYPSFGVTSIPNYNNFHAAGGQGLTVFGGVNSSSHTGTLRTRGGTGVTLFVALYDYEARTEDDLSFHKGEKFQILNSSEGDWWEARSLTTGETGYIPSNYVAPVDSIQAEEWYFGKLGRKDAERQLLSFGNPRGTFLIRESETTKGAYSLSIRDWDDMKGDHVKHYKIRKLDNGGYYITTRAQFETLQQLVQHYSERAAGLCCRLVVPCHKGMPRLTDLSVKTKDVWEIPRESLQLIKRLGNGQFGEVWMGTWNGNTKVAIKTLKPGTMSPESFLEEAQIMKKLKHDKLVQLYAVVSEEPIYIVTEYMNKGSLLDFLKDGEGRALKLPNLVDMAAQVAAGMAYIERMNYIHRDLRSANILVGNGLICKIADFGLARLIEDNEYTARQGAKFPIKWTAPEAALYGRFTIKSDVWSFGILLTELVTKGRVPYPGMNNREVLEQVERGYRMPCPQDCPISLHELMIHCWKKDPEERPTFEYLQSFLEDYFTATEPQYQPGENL
On the technique in general: In ADP-Glo the light output rises with the ADP produced.

SMILES strings stand for the structures.

For the compound `COc1ccc(CNc2nn3c(-c4ccc(O)c(OC)c4)cnc3s2)cc1` [Compound 559, 2-methoxy-4-[2-[(4-methoxy-phenyl)methyl-amino]imidazo [2,1-b][1,3,4]thiadiazol-5-yl]phenol], the IC50 is 1.78 µM. Take `COc1ccc(-c2cnc3sc(NCc4cccnc4)nn23)cn1` [Compound 560, 5-(6-methoxy-3-pyridyl)-N-(3-pyridylmethyl) imidazo[2,1-b] [1,3,4]thiadiazol-2-amine]: the IC50 is 2.94 µM.

Take `Fc1ccc(-c2cnc3sc(NCCN4CCOCC4)nn23)cc1Cl` [Compound 561, 5-(3-chloro-4-fluoro-phenyl)-N-(2-morpholino-ethyl)imidazo [2,1-b][1,3,4] thiadiazol-2-amine]: the IC50 stood at 4.82 µM.

For the compound `c1cc(CCNc2nn3c(-c4ccncc4)cnc3s2)ccn1` [Compound 562], the IC50 stood at 2.43 µM.

For `COc1ccc(-c2cnc3sc(NC4CCC(O)CC4)nn23)cn1` (stereo not shown) [Compound 563, 4-[[5-(6-methoxy-3-pyridyl)imidazo[2,1-b] [1,3,4]thiadiazol-2-yl]amino] cyclohexanol], the IC50 worked out at 1.61 µM. In the case of `CC(=O)c1ccc(-c2cnc3sc(NCCN4CCOCC4)nn23)s1` [Compound 564, 1-[5-[2-(2-morpholinoethyl-amino)imidazo [2,1-b][1,3,4]thiadiazol-5-yl]-2-thienyl] ethanone] it was 3 µM; in that of `COc1ccccc1-c1cc(NC(C)=O)c2ncc(-c3cccc(C(C)=O)c3)n2c1` [Compound 565, N-[3-(3-acetylphenyl)-6-[2-methoxy-phenyl)imidazo [1,2-a]pyridin-8-yl]acetamide], 1.58 µM. To `CS(=O)(=O)Nc1cccc(-c2cc(NC=O)c3ncc(-c4ccc(F)c(Cl)c4)n3c2)c1` [Compound 566, N-[3-(3-chloro-4-fluoro-phenyl)-6-[3-(methane-sulfonamido)phenyl]imidazo [1,2-a]pyridin-8-yl]formamide] belongs 2.86 µM; to `c1csc(CNc2nn3c(-c4ccncc4)cnc3s2)c1` [Compound 567, 5-(4-pyridyl)-N-(2-thienylmethyl) imidazo[2,1-b] [1,3,4]thiadiazol-2-amine], 3.62 µM. In the case of `CS(=O)(=O)Nc1cccc(-c2cnc3sc(NC4CCCCC4)nn23)c1` [Compound 568, N-[3-[2-(cyclohexylamino)imidazo[2,1-b] [1,3,4]thiadiazol-5-yl]phenyl] methane-sulfonamide] it was 4.33 µM. With `CC(C)CNc1nn2c(-c3cccc(C(N)=O)c3)cnc2s1` [Compound 569, 3-[2-(isobutylamino)imidazo[2,1-b] [1,3,4]thiadiazol-5-yl]benzamide], the IC50 stood at 1.13 µM. Regarding `OC1CCC(Nc2nn3c(-c4cccc(F)c4)cnc3s2)CC1` (stereo not shown) [Compound 571, 4-[[5-(3-fluorophenyl)imidazo[2,1-b] [1,3,4]thiadiazol-2-yl]amino] cyclohexanol], the IC50 came to 2.92 µM.

On to `COc1ccc(-c2cnc3sc(NC4CCC(O)CC4)nn23)cc1OC` (stereo not shown) [Compound 572, 4-[[5-(3,4-dimethoxyphenyl)imidazo[2,1-b] [1,3,4]thiadiazol-2-yl]amino] cyclohexanol], for which the half-inhibitory concentration (IC50) stood at 0.483 µM. With `c1cncc(-c2cnc3sc(NCc4cccs4)nn23)c1` [Compound 573, 5-(3-pyridyl)-N-(2-thienylmethyl) imidazo[2,1-b] [1,3,4]thiadiazol-2-amine], the IC50 worked out at 1.94 µM. Turning to `COc1ccc(-c2cnc3sc(NCc4ccncc4)nn23)cc1OC` [Compound 574, 5-(3,4-dimethoxy-phenyl)-N-(4-pyridylmethyl) imidazo[2,1-b] [1,3,4]thiadiazol-2-amine], the IC50 worked out at 2.13 µM. In the case of `CC(=O)Nc1cc(-c2ccc(N)cc2)cn2c(-c3ccc(F)cc3)cnc12` [Compound 575, N-[6-(4-aminophenyl)-3-(4-fluorophenyl)imidazo[1,2-a]pyridin-8-yl]acetamide] it was 5.25 µM. To `Cn1cc(-c2cc(NC=O)c3ncc(-c4ccc(F)cc4)n3c2)cn1` [Compound 576, N-[3-(4-fluorophenyl)-6-(1-methylpyrazol-4-yl)imidazo[1,2-a]pyridin-8-yl]formamide] belongs 8.09 µM; to `COc1cccc(-n2c(N)c(C(N)=O)c3nc4ccccc4nc32)c1` [Compound 577, 2-amino-1-(3-methoxyphenyl) pyrrolo[3,2-b]quinoxaline-3-carboxamide], 1.18 µM. In the case of `Fc1cccc(-c2cnc3sc(NC4CCCCC4)nn23)c1` [Compound 578, N-cyclohexyl-5-(3-fluorophenyl) imidazo[2,1-d] [1,3,4]thiadiazol-2-amine] it was 4.08 µM; in that of `c1cncc(-c2cnc3sc(NCc4ccco4)nn23)c1` [Compound 579, N-(2-furylmethyl)-5-(3-pyridyl)imidazo [2,1-a][1,3,4] thiadiazol-2-amine], 3.16 µM. In the case of `Cn1cc(-c2cnc3sc(NCc4ccco4)nn23)cn1` [Compound 580, N-(2-furylmethyl)-5-(1-methylpyrazol-4-yl)imidazo [2,1-b][1,3,4] thiadiazol-2-amine], the IC50 worked out at 5.64 µM.

On to `COc1cncc(-c2cnc3sc(NCc4cccs4)nn23)c1` [Compound 581, 5-(5-methoxy-3-pyridyl)-N-(2-thienylmethyl) imidazo[2,1-b] [1,3,4]thiadiazol-2-amine], for which the IC50 was determined as 0.729 µM. To `COc1ccc(-c2cnc3sc(NCC(C)C)nn23)cc1OC` [Compound 582, 5-(3,4-dimethoxy-phenyl)-N-isobutyl-imidazo [2,1-b][1,3,4] thiadiazol-2-amine] belongs 2.75 µM; to `CC(=O)c1cccc(-c2cnc3sc(NCC(C)C)nn23)c1` [Compound 583, 1-[3-[2-(isobutyl-amino)imidazo [2,1-a][1,3,4]thiadiazol-5-yl]phenyl] ethanone], 15.1 µM. For `c1ccc(CNc2nn3c(-c4cccnc4)cnc3s2)cc1` [Compound 584, N-benzyl-5-(3-pyridyl)imidazo [2,1-b][1,3,4] thiadiazol-2-amine], the IC50 stood at 0.839 µM. To `COc1cncc(-c2cnc3sc(NCc4ccccc4)nn23)c1` [Compound 585, N-benzyl-5-(5-methoxy-3-pyridyl)imidazo [2,1-b][1,3,4] thiadiazol-2-amine] belongs 0.343 µM; to `c1cncc(-c2cnc3sc(NCC4CCOCC4)nn23)c1` [Compound 586, 5-(3-pyridyl)-N-(tetrahydropyran-4-ylmethyl) imidazo[2,1-b] [1,3,4]thiadiazol-2-amine], 4.85 µM. To `COc1cncc(-c2cnc3sc(NCC4CCOCC4)nn23)c1` [Compound 587, 5-(5-methoxy-3-pyridyl)-N-(tetrahydro-pyran-4-ylmethyl)imidazo [2,1-d][1,3,4] thiadiazol-2-amine] belongs 0.384 µM; to `COc1ccc(CNc2nn3c(-c4cncc(OC)c4)cnc3s2)cc1` [Compound 588, N-[(4-methoxyphenyl)methyl]-5-(5-methoxy-3-pyridyl)imidazo [2,1-3][1,3,4] thiadiazol-2-amine], 9.65 µM. To `Cc1ccccc1CNc1nn2c(-c3cccnc3)cnc2s1` [Compound 589, N-(o-tolylmethyl)-5-(3-pyridyl) imidazo[2,1-b] [1,3,4]thiadiazol-2-amine] belongs 1.08 µM. For the compound `CN1CCN(c2ccc(Nc3cc4c(cn3)cc(-c3cccc(C(F)(F)F)c3)n4C)cc2)CC1` [Compound 590, 1-methyl-N-[4-(4-methylpiperazin-1-yl)phenyl]-2-[3-(trifluoromethyl)phenyl]pyrrolo [3,2-c]pyridin-6-amine], the IC50 was 30 µM. As to `Cn1c(-c2cccc(C(F)(F)F)c2)cc2cnc(Nc3ccncn3)cc21` [Compound 591, 1-methyl-N-pyrimidin-4-yl-2-[3-(trifluoro-methyl)phenyl] pyrrolo[3,2-c]pyridin-6-amine], the IC50 is 16.8 µM. `CN1CCN(c2ccc(Nc3cc4c(cn3)cc(-c3cccc(F)c3)n4C)cc2)CC1` [Compound 592, 2-(3-fluorophenyl)-1-methyl-N-[4-(4-methylpiperazin-1-yl)phenyl] pyrrolo[3,2-c]pyridin-6-amine]: the IC50 was determined as 12.9 µM. To `Cn1c(-c2cccc(F)c2)cc2cnc(Nc3ccncn3)cc21` [Compound 593, 2-(3-fluorophenyl)-1-methyl-N-pyrimidin-4-yl-pyrrolo[3,2-c]pyridin-6-amine] belongs 9.09 µM; to `NC1=C(c2nc3ccccc3[nH]2)C(=O)CN1c1ccc2c(c1)OCO2` [Compound 594, 5-amino-4-(1H-benzimidazol-2-yl)-1-(1,3-benzodioxol-5-yl)-2H-pyrrol-3-one], 4.07 µM; to `CN1CCN(c2ccc(Nc3nccc4[nH]c(-c5ccc(C(=O)N(C)C)cc5)cc34)cc2)CC1` [Compound 595, N,N-dimethyl-4-[4-[4-(4-methylpiperazin-1-yl)anilino]-1H-pyrrolo[3,2-c]pyridin-2-yl]benzamide], 7.04 µM. In the case of `COc1cc(OC)cc(-c2cc3c(N4CCOCC4)nccc3[nH]2)c1` [Compound 596, 4-[2-(3,5-dimethoxy-phenyl)-1H-pyrrolo[3,2-c]pyridin-4-yl]morpholine] it was 30 µM.

Take `COc1ccccc1-c1cc2c(Nc3ccc(NC(C)=O)cc3)nccc2[nH]1` [Compound 597, N-[4-[[2-(2-methoxyphenyl)-1H-pyrrolo[3,2-c]pyridin-4-yl]amino]phenyl] acetamide]: the concentration for half-maximal inhibition (IC50) came out at 30 µM.

As for `COc1ccccc1-c1cc2c(Nc3cccc(C(F)(F)F)c3)nccc2n1C` [Compound 598, 2-(2-methoxyphenyl)-1-methyl-N-[3-(trifluoromethyl)phenyl]pyrrolo [3,2-c]pyridin-4-amine], the IC50 was 30 µM. To `COc1ccc(OC)c(-n2c(-c3ccc(F)cc3)cn3c4c(=O)[nH]c(=O)n(C)c4nc23)c1` [Compound 599, 8-(2,5-dimethoxy-phenyl)-7-(4-fluorophenyl)-1-methyl-3H-imidazo [1,2-g]purine-2,4-dione] belongs 18.4 µM.
